Experimental data as given in the NIST ThermoML archive (doi:10.1016/j.jct.2018.10.006).
± gives the expanded uncertainty stated by the source.

Assay: molar heat capacity at constant pressure
Details: 101.33 kPa, Crystal 2, Small (less than 1 g) adiabatic calorimetry

Compound: O=P([O-])([O-])[O-].[Cs+].[Ni+2] [cesium nickel monophosphate]
- molar heat capacity at constant pressure (5 K): 0.898 ± 0.033 J/K/mol
- molar heat capacity at constant pressure (6 K): 1.272 ± 0.042 J/K/mol
- molar heat capacity at constant pressure (6.21 K): 1.255 ± 0.042 J/K/mol
- molar heat capacity at constant pressure (6.51 K): 1.413 ± 0.042 J/K/mol
- molar heat capacity at constant pressure (6.82 K): 1.605 ± 0.05 J/K/mol
- molar heat capacity at constant pressure (7 K): 1.721 ± 0.05 J/K/mol
- molar heat capacity at constant pressure (7.13 K): 1.788 ± 0.05 J/K/mol
- molar heat capacity at constant pressure (7.51 K): 1.987 ± 0.058 J/K/mol
- molar heat capacity at constant pressure (7.97 K): 2.195 ± 0.058 J/K/mol
- molar heat capacity at constant pressure (8 K): 2.203 ± 0.058 J/K/mol
- molar heat capacity at constant pressure (8.43 K): 2.444 ± 0.067 J/K/mol
- molar heat capacity at constant pressure (8.87 K): 2.627 ± 0.067 J/K/mol
- molar heat capacity at constant pressure (9 K): 2.719 ± 0.075 J/K/mol
- molar heat capacity at constant pressure (9.32 K): 2.902 ± 0.075 J/K/mol
- molar heat capacity at constant pressure (9.77 K): 3.176 ± 0.083 J/K/mol
- molar heat capacity at constant pressure (10 K): 3.351 ± 0.083 J/K/mol
- molar heat capacity at constant pressure (10.24 K): 3.492 ± 0.091 J/K/mol
- molar heat capacity at constant pressure (10.72 K): 3.908 ± 0.1 J/K/mol
- molar heat capacity at constant pressure (11.23 K): 4.299 ± 0.11 J/K/mol
- molar heat capacity at constant pressure (11.76 K): 4.756 ± 0.12 J/K/mol
- molar heat capacity at constant pressure (12.55 K): 5.496 ± 0.13 J/K/mol
- molar heat capacity at constant pressure (13.09 K): 6.119 ± 0.15 J/K/mol
- molar heat capacity at constant pressure (13.82 K): 6.826 ± 0.16 J/K/mol
- molar heat capacity at constant pressure (14.55 K): 7.566 ± 0.17 J/K/mol
- molar heat capacity at constant pressure (15 K): 8.032 ± 0.18 J/K/mol
- molar heat capacity at constant pressure (15.28 K): 8.431 ± 0.11 J/K/mol
- molar heat capacity at constant pressure (16.02 K): 9.146 ± 0.12 J/K/mol
- molar heat capacity at constant pressure (16.77 K): 9.844 ± 0.12 J/K/mol
- molar heat capacity at constant pressure (17.78 K): 10.73 ± 0.12 J/K/mol
- molar heat capacity at constant pressure (18.33 K): 11.31 ± 0.13 J/K/mol
- molar heat capacity at constant pressure (19.12 K): 12.07 ± 0.13 J/K/mol
- molar heat capacity at constant pressure (19.94 K): 13.03 ± 0.14 J/K/mol
- molar heat capacity at constant pressure (20 K): 13.06 ± 0.14 J/K/mol
- molar heat capacity at constant pressure (21.96 K): 15.22 ± 0.16 J/K/mol
- molar heat capacity at constant pressure (24.23 K): 17.56 ± 0.17 J/K/mol
- molar heat capacity at constant pressure (25 K): 18.54 ± 0.17 J/K/mol
- molar heat capacity at constant pressure (26.66 K): 20.67 ± 0.18 J/K/mol
- molar heat capacity at constant pressure (29.06 K): 23.5 ± 0.19 J/K/mol
- molar heat capacity at constant pressure (30 K): 24.62 ± 0.2 J/K/mol
- molar heat capacity at constant pressure (31.53 K): 26.28 ± 0.21 J/K/mol
- molar heat capacity at constant pressure (34.01 K): 28.63 ± 0.22 J/K/mol
- molar heat capacity at constant pressure (35 K): 29.56 ± 0.23 J/K/mol
- molar heat capacity at constant pressure (36.46 K): 30.81 ± 0.24 J/K/mol
- molar heat capacity at constant pressure (38.9 K): 33.32 ± 0.25 J/K/mol
- molar heat capacity at constant pressure (40 K): 34.26 ± 0.26 J/K/mol
- molar heat capacity at constant pressure (41.34 K): 35.6 ± 0.22 J/K/mol
- molar heat capacity at constant pressure (43.79 K): 38.06 ± 0.23 J/K/mol
- molar heat capacity at constant pressure (45 K): 39.07 ± 0.24 J/K/mol
- molar heat capacity at constant pressure (46.25 K): 40.1 ± 0.24 J/K/mol
- molar heat capacity at constant pressure (48.71 K): 42.56 ± 0.26 J/K/mol
- molar heat capacity at constant pressure (50 K): 43.9 ± 0.27 J/K/mol
- molar heat capacity at constant pressure (51.87 K): 45.56 ± 0.27 J/K/mol
- molar heat capacity at constant pressure (53.99 K): 47.57 ± 0.28 J/K/mol
- molar heat capacity at constant pressure (56.52 K): 50.12 ± 0.29 J/K/mol
- molar heat capacity at constant pressure (58.51 K): 51.87 ± 0.3 J/K/mol
- molar heat capacity at constant pressure (60 K): 52.93 ± 0.3 J/K/mol
- molar heat capacity at constant pressure (61.71 K): 54.33 ± 0.31 J/K/mol
- molar heat capacity at constant pressure (63.47 K): 55.42 ± 0.32 J/K/mol
- molar heat capacity at constant pressure (67.49 K): 58.66 ± 0.33 J/K/mol
- molar heat capacity at constant pressure (68.37 K): 59.49 ± 0.33 J/K/mol
- molar heat capacity at constant pressure (70 K): 60.41 ± 0.34 J/K/mol
- molar heat capacity at constant pressure (70.84 K): 61.18 ± 0.34 J/K/mol
- molar heat capacity at constant pressure (73.34 K): 62.62 ± 0.35 J/K/mol
- molar heat capacity at constant pressure (75.82 K): 64.02 ± 0.36 J/K/mol
- molar heat capacity at constant pressure (78.29 K): 65.34 ± 0.36 J/K/mol
- molar heat capacity at constant pressure (80 K): 66.38 ± 0.37 J/K/mol
- molar heat capacity at constant pressure (80.75 K): 66.68 ± 0.37 J/K/mol
- molar heat capacity at constant pressure (81.73 K): 67.23 ± 0.37 J/K/mol
- molar heat capacity at constant pressure (83.21 K): 67.91 ± 0.37 J/K/mol
- molar heat capacity at constant pressure (85.55 K): 69.26 ± 0.37 J/K/mol
- molar heat capacity at constant pressure (85.67 K): 69.26 ± 0.37 J/K/mol
- molar heat capacity at constant pressure (88.13 K): 70.96 ± 0.38 J/K/mol
- molar heat capacity at constant pressure (88.91 K): 71.04 ± 0.38 J/K/mol
- molar heat capacity at constant pressure (90 K): 71.65 ± 0.41 J/K/mol
- molar heat capacity at constant pressure (92.27 K): 73.08 ± 0.42 J/K/mol
- molar heat capacity at constant pressure (95.63 K): 74.82 ± 0.42 J/K/mol
- molar heat capacity at constant pressure (98.99 K): 76.75 ± 0.42 J/K/mol
- molar heat capacity at constant pressure (100 K): 77.58 ± 0.43 J/K/mol
- molar heat capacity at constant pressure (102.34 K): 78.95 ± 0.43 J/K/mol
- molar heat capacity at constant pressure (105.7 K): 80.67 ± 0.44 J/K/mol
- molar heat capacity at constant pressure (109.06 K): 82.69 ± 0.45 J/K/mol
- molar heat capacity at constant pressure (110 K): 82.93 ± 0.45 J/K/mol
- molar heat capacity at constant pressure (112.41 K): 84.06 ± 0.5 J/K/mol
- molar heat capacity at constant pressure (115.76 K): 85.56 ± 0.5 J/K/mol
- molar heat capacity at constant pressure (119.1 K): 86.8 ± 0.5 J/K/mol
- molar heat capacity at constant pressure (120 K): 87.3 ± 0.5 J/K/mol
- molar heat capacity at constant pressure (122.44 K): 88.22 ± 0.5 J/K/mol
- molar heat capacity at constant pressure (125.78 K): 89.96 ± 0.5 J/K/mol
- molar heat capacity at constant pressure (129.12 K): 91.04 ± 0.5 J/K/mol
- molar heat capacity at constant pressure (130 K): 91.38 ± 0.5 J/K/mol
- molar heat capacity at constant pressure (132.46 K): 92.37 ± 0.5 J/K/mol
- molar heat capacity at constant pressure (135.8 K): 93.29 ± 0.5 J/K/mol
- molar heat capacity at constant pressure (139.13 K): 94.95 ± 0.5 J/K/mol
- molar heat capacity at constant pressure (140 K): 95.37 ± 0.5 J/K/mol
- molar heat capacity at constant pressure (142.46 K): 96.61 ± 0.5 J/K/mol
- molar heat capacity at constant pressure (145.78 K): 97.86 ± 0.5 J/K/mol
- molar heat capacity at constant pressure (149.1 K): 99.03 ± 0.5 J/K/mol
- molar heat capacity at constant pressure (150 K): 99.52 ± 0.5 J/K/mol
- molar heat capacity at constant pressure (152.42 K): 100.44 ± 0.5 J/K/mol
- molar heat capacity at constant pressure (155.74 K): 101.69 ± 0.5 J/K/mol
- molar heat capacity at constant pressure (159.04 K): 103.27 ± 0.5 J/K/mol
